Calls of active or inactive are those of the source. The rule behind the calls is not given here.

The target in experiment [1] is T1, Gamma-secretase (Homo sapiens) (UniProt Q96BI3+Q9NZ42+Q8WW43+P49768+Q92542+P49810). The experiment is described as follows: Displacement of biotinylated PS1NTF from gamma-secretase (unknown origin). It is filed as protein-complex assay.
For experiment [2], the target named is T1, Gamma-secretase (Homo sapiens). The experiment is described as follows: Inhibition of gamma-secretase in human H4 glioma cells assessed as Abeta production at 0.1 to 10 µM by immunoblot analysis. It counts as cell-based. On the technique in general: A western blot detects proteins with antibodies after separation by electrophoresis.
For experiment [3] the target is unchanged. The experiment is described as follows: Ratio of IC50 for gamma-secretase-mediated inhibition of notch intracellular cytoplasmic domain secretion to IC50 for gamma-secretase-mediated inhibition of Abeta42 secretion in human HEK293 cells expressing APPNL/NotchDeltaE/EGFP/UAS-firefly luciferase by ELISA. It counts as cell-based.
The target in experiment [4] is Gamma-secretase. The experiment is described as follows: Inhibition of gamma-secretase in human HEK293 cells expressing APPNL/NotchDeltaE/EGFP/UAS-firefly luciferase assessed as inhibition of notch intracellular cytoplasmic domain secretion by ELISA. It counts as cell-based. On the technique in general: ELISA stands for enzyme-linked immunosorbent assay.
Experiment [5] deals with Gamma-secretase. The experiment is described as follows: Inhibition of gamma-secretase in human HEK293 cells expressing APPNL/NotchDeltaE/EGFP/UAS-firefly luciferase assessed as inhibition of Abeta42 secretion by ELISA. It is filed as cell-based.
Experiment [6] deals with Gamma-secretase. The experiment is described as follows: Inhibition of gamma-secretase in human HEK293 cells expressing APPNL/NotchDeltaE/EGFP/UAS-firefly luciferase assessed as inhibition of IAbeta40 secretion by ELISA. It counts as cell-based.
Experiment [7] has as its target T1, Gamma-secretase (Homo sapiens). The experiment is described as follows: Inhibition of gamma-secretase (unknown origin) expressed in N2a NL/N cells coexpressing betaAPPNL and NotchdeltaE assessed as Abeta42 secretion at 100 nM by ELISA. It counts as cell-based.
For experiment [8] the target is unchanged. The experiment is described as follows: Inhibition of gamma-secretase (unknown origin) expressed in N2a NL/N cells coexpressing betaAPPNL and NotchdeltaE assessed as Abeta40 secretion at 100 nM by ELISA. It is filed as cell-based.
In experiment [9] the target is Gamma-secretase. The experiment is described as follows: Inhibition of gamma-secretase (unknown origin) expressed in N2a NL/N cells coexpressing betaAPPNL and NotchdeltaE assessed as Abeta42 secretion by ELISA. It is filed as cell-based, Homo sapiens.
The target in experiment [10] is Gamma-secretase. The experiment is described as follows: Inhibition of gamma-secretase (unknown origin) expressed in N2a NL/N cells coexpressing betaAPPNL and NotchdeltaE assessed as Abeta40 secretion by ELISA. It is filed as cell-based, Homo sapiens.

The term IC50 denotes the concentration that inhibits the measured activity by half. For the molecule `CC(=O)N[C@H]1CCC[C@@H]1C(=O)N[C@H]1CCC[C@@H]1C(=O)N[C@@H](CC(N)=O)CC(=O)N[C@H]1CCC[C@@H]1C(=O)N[C@H]1CCC[C@@H]1C(=O)N[C@H]1CCC[C@@H]1C(=O)N[C@H]1CCC[C@@H]1C(=O)N[C@H]1CCC[C@@H]1C(=O)N[C@H]1CCC[C@@H]1C(=O)N[C@H]1CCC[C@@H]1C(=O)N[C@H]1CCC[C@@H]1C(=O)N[C@H]1CCC[C@@H]1C(N)=O`, the result in [1] was Active. The inhibition entry in experiment [2], in experiment [7] and in experiment [8] was “Active” throughout. Further, the Ratio IC50 in experiment [3] turned out to be 0.0462. Moreover, the IC50 was 3.16 nM in experiment [4]; 68.4 nM in experiment [5]; 84.6 nM in [6]; 0.88 nM in experiment [9]; 0.555 nM in experiment [10].
For the molecule `CC(=O)N[C@H]1CCC[C@@H]1C(=O)N[C@H]1CCC[C@@H]1C(=O)N[C@H]1CCC[C@@H]1C(=O)N[C@H]1CCC[C@@H]1C(=O)N[C@H]1CCC[C@@H]1C(=O)N[C@H]1CCC[C@@H]1C(=O)N[C@H]1CCC[C@@H]1C(=O)N[C@H]1CCC[C@@H]1C(=O)N[C@H]1CCC[C@@H]1C(=O)N[C@H]1CCC[C@@H]1C(N)=O`, the 50% inhibitory concentration (IC50) was determined as 5210 nM in [9] and 2280 nM in [10].
For the molecule `CC(=O)N1CCC[C@@H]1C(=O)N1CCC[C@@H]1C(=O)N1CCC[C@@H]1C(=O)N1CCC[C@@H]1C(=O)N1CCC[C@@H]1C(=O)N1CCC[C@@H]1C(N)=O`, the 50% inhibitory concentration (IC50) in experiment [9] and in [10] was greater than 30000 nM in each case.
In the case of `CC(=O)N[C@H]1CCC[C@@H]1C(=O)N[C@H]1CCC[C@@H]1C(=O)NC(CO)CC(=O)N[C@H]1CCC[C@@H]1C(=O)N[C@H]1CCC[C@@H]1C(=O)N[C@H]1CCC[C@@H]1C(=O)N[C@H]1CCC[C@@H]1C(=O)N[C@H]1CCC[C@@H]1C(=O)N[C@H]1CCC[C@@H]1C(=O)N[C@H]1CCC[C@@H]1C(=O)N[C@H]1CCC[C@@H]1C(=O)N[C@H]1CCC[C@@H]1C(N)=O` (single isomer, unassigned), the result in experiment [1] was Active. Moreover, the inhibition entry in experiment [2], in [7] and in [8] was “Active” each time. Further, the Ratio IC50 in experiment [3] worked out at 0.478. Also, the half-maximal inhibitory concentration (IC50) in experiment [4] amounted to 41.3 nM; in experiment [5], 86.4 nM; in experiment [6], 84.2 nM; in experiment [9], 0.83 nM; in experiment [10], 0.402 nM.
In the case of `CC(=O)N1CCC[C@H]1C(=O)N1CCC[C@H]1C(=O)N1CCC[C@H]1C(=O)N1CCC[C@H]1C(=O)N1CCC[C@H]1C(=O)N1CCC[C@H]1C(=O)N1CCC[C@H]1C(=O)N1CCC[C@H]1C(=O)N1CCC[C@H]1C(=O)N1CCC[C@H]1C(=O)N1CCC[C@H]1C(N)=O`, the IC50 in [9] and in [10] was greater than 30000 nM each time.
For `O=S(=O)(N[C@H](CO)C(C(F)(F)F)C(F)(F)F)c1ccc(Cl)s1` [BEGACESTAT], the IC50 in experiment [9] amounted to 414 nM; in experiment [10], 203 nM.
For `CC(=O)N1CCC[C@@H]1C(=O)N1CCC[C@@H]1C(=O)N1CCC[C@@H]1C(=O)N1CCC[C@@H]1C(=O)N1CCC[C@@H]1C(=O)N1CCC[C@@H]1C(=O)N1CCC[C@@H]1C(=O)N1CCC[C@@H]1C(=O)N1CCC[C@@H]1C(=O)N1CCC[C@@H]1C(=O)N1CCC[C@@H]1C(N)=O`, the IC50 in experiment [9] and in experiment [10] was greater than 30000 nM throughout.
As to `CC(=O)N[C@H]1CCC[C@@H]1C(=O)N[C@H]1CCC[C@@H]1C(=O)N[C@H]1CCC[C@@H]1C(=O)N[C@H]1CCC[C@@H]1C(=O)N[C@H]1CCC[C@@H]1C(=O)N[C@H]1CCC[C@@H]1C(=O)N[C@H]1CCC[C@@H]1C(=O)N[C@H]1CCC[C@@H]1C(=O)N[C@H]1CCC[C@@H]1C(=O)N[C@H]1CCC[C@@H]1C(=O)N[C@H]1CCC[C@@H]1C(=O)N[C@H]1CCC[C@@H]1C(N)=O`, in [3], the Ratio IC50 turned out to be 0.0326. The IC50 in experiment [4] was determined as 20.4 nM; in experiment [5] it was 626 nM; in experiment [6], 1180 nM; in experiment [9], 9.93 nM; in experiment [10], 8.81 nM.
On to `CC(=O)N1CCC[C@H]1C(=O)N1CCC[C@H]1C(=O)N1CCC[C@H]1C(=O)N1CCC[C@H]1C(=O)N1CCC[C@H]1C(=O)N1CCC[C@H]1C(N)=O`, for which the concentration for half-maximal inhibition (IC50) in [9] and in experiment [10] was greater than 30000 nM throughout.
Turning to `CC(=O)N[C@H]1CCC[C@@H]1C(=O)N[C@H]1CCC[C@@H]1C(=O)NCCC(=O)N[C@H]1CCC[C@@H]1C(=O)N[C@H]1CCC[C@@H]1C(=O)N[C@H]1CCC[C@@H]1C(=O)N[C@H]1CCC[C@@H]1C(=O)N[C@H]1CCC[C@@H]1C(=O)N[C@H]1CCC[C@@H]1C(=O)N[C@H]1CCC[C@@H]1C(=O)N[C@H]1CCC[C@@H]1C(=O)N[C@H]1CCC[C@@H]1C(N)=O`, the inhibition result in experiment [7] and in experiment [8] was “Active” in each case. The IC50 in [9] amounted to 7.47 nM; in [10] it was 2.47 nM.

The values are drawn from ChEMBL document CHEMBL2331477, “Effect of helical conformation and side chain structure on γ-secretase inhibition by β-peptide foldamers: insight into substrate recognition” (J Med Chem, 2013).
